Experimental data as given in ChEMBL document CHEMBL3885881, “DrugMatrix”.

Species on record: Rattus norvegicus
Assay: DrugMatrix - Regimen: Daily Repeat
Type: toxicity, organism-based, Sprague-Dawley
Parameters: regimen Daily Repeat, gender Male, age 6-8 weeks
Settings: in vivo, po, route oral GAVAGE, […]; for ABSOLUTE BASOPHIL / ABSOLUTE EOSINOPHIL / ABSOLUTE LYMPHOCYTE / ABSOLUTE MONOCYTE / ABSOLUTE SEGMENTED NEUTROPHIL / BASOPHIL / EOSINOPHIL / ERYTHROCYTE COUNT / HEMATOCRIT / HEMOGLOBIN / LEUKOCYTE COUNT / LYMPHOCYTE / MEAN CORPUSCULAR HEMOGLOBIN / MEAN CORPUSCULAR HEMOGLOBIN CONCENTRATION / MEAN CORPUSCULAR VOLUME / MONOCYTE / NEUTROPHIL / NUCLEATED RED BLOOD CELLS / PLATELET COUNT: tissue Blood; for ALANINE AMINOTRANSFERASE / ALBUMIN / ALKALINE PHOSPHATASE / ASPARTATE AMINOTRANSFERASE / BLOOD UREA NITROGEN / CARBON DIOXIDE / CHLORIDE / CHOLESTEROL / CREATINE PHOSPHOKINASE / CREATININE / GLUCOSE / LACTATE DEHYDROGENASE / LIPASE / PHOSPHORUS / POTASSIUM / SODIUM / TOTAL BILIRUBIN / TOTAL PROTEIN / URIC ACID: tissue Plasma
[1] = 0.6 mg/kg, 120 h, dose level Low, time 5 day
[2] = 4.5 mg/kg, 72 h, dose level High, time 3 day
[3] = 4.5 mg/kg, 120 h, dose level High, time 5 day

Structure (SMILES): O=C(O)CCCc1ccc(N(CCCl)CCCl)cc1 [CHLORAMBUCIL]
- ABSOLUTE BASOPHIL [1]: 0 CELLS/uL
- ABSOLUTE EOSINOPHIL [1]: 245.67 CELLS/uL
- ABSOLUTE LYMPHOCYTE [1]: 10916 CELLS/uL
- ABSOLUTE MONOCYTE [1]: 468.33 CELLS/uL
- ABSOLUTE SEGMENTED NEUTROPHIL [1]: 1403.33 CELLS/uL
- BASOPHIL [1]: 0%
- EOSINOPHIL [1]: 1.67%
- ERYTHROCYTE COUNT [1]: 5.48 x10E6/uL
- HEMATOCRIT [1]: 34.97%
- HEMOGLOBIN [1]: 13.77 G/DL
- LEUKOCYTE COUNT [1]: 13.03 x10E3/uL
- LYMPHOCYTE [1]: 84.33%
- MEAN CORPUSCULAR HEMOGLOBIN [1]: 25.13 pg
- MEAN CORPUSCULAR HEMOGLOBIN CONCENTRATION [1]: 39.37 G/DL
- MEAN CORPUSCULAR VOLUME [1]: 63.77 fL
- MONOCYTE [1]: 3.67%
- NEUTROPHIL [1]: 10.33%
- NUCLEATED RED BLOOD CELLS [1]: 0 /100WBC
- PLATELET COUNT [1]: 1176 x10E3/uL
- ALANINE AMINOTRANSFERASE [1]: 57.33 u/L
- ALBUMIN [1]: 4.03 G/DL
- ALKALINE PHOSPHATASE [1]: 437.67 u/L
- ASPARTATE AMINOTRANSFERASE [1]: 74.67 u/L
- BLOOD UREA NITROGEN [1]: 12 mg/dL
- CARBON DIOXIDE [1]: 24.33 mmol/L
- CHLORIDE [1]: 100.67 MEQ/L
- CHOLESTEROL [1]: 76.67 mg/dL
- CREATINE PHOSPHOKINASE [1]: 301 u/L
- CREATININE [1]: 0.16 mg/dL
- GLUCOSE [1]: 184.33 mg/dL
- LACTATE DEHYDROGENASE [1]: 187.33 u/L
- LIPASE [1]: 7 u/L
- PHOSPHORUS [1]: 10.63 mg/dL
- POTASSIUM [1]: 6.13 MEQ/L
- SODIUM [1]: 139.57 MEQ/L
- TOTAL BILIRUBIN [1]: 0.13 mg/dL
- TOTAL PROTEIN [1]: 5.83 G/DL
- URIC ACID [1]: 1.33 mg/dL
- ABSOLUTE BASOPHIL [2]: 0 CELLS/uL
- ABSOLUTE EOSINOPHIL [2]: 76.67 CELLS/uL
- ABSOLUTE LYMPHOCYTE [2]: 5496.33 CELLS/uL
- ABSOLUTE MONOCYTE [2]: 177.33 CELLS/uL
- ABSOLUTE SEGMENTED NEUTROPHIL [2]: 816.33 CELLS/uL
- BASOPHIL [2]: 0%
- EOSINOPHIL [2]: 1.33%
- ERYTHROCYTE COUNT [2]: 5.43 x10E6/uL
- HEMATOCRIT [2]: 34.5%
- HEMOGLOBIN [2]: 13.73 G/DL
- LEUKOCYTE COUNT [2]: 6.57 x10E3/uL
- LYMPHOCYTE [2]: 84.33%
- MEAN CORPUSCULAR HEMOGLOBIN [2]: 25.33 pg
- MEAN CORPUSCULAR HEMOGLOBIN CONCENTRATION [2]: 39.77 G/DL
- MEAN CORPUSCULAR VOLUME [2]: 63.67 fL
- MONOCYTE [2]: 2.67%
- NEUTROPHIL [2]: 11.67%
- NUCLEATED RED BLOOD CELLS [2]: 0 /100WBC
- PLATELET COUNT [2]: 1208.33 x10E3/uL
- ALANINE AMINOTRANSFERASE [2]: 50 u/L
- ALBUMIN [2]: 4.1 G/DL
- ALKALINE PHOSPHATASE [2]: 336 u/L
- ASPARTATE AMINOTRANSFERASE [2]: 69 u/L
- BLOOD UREA NITROGEN [2]: 13 mg/dL
- CARBON DIOXIDE [2]: 25.33 mmol/L
- CHLORIDE [2]: 100.33 MEQ/L
- CHOLESTEROL [2]: 70.67 mg/dL
- CREATINE PHOSPHOKINASE [2]: 260.33 u/L
- CREATININE [2]: 0.34 mg/dL
- GLUCOSE [2]: 191.33 mg/dL
- LACTATE DEHYDROGENASE [2]: 111 u/L
- LIPASE [2]: 9 u/L
- PHOSPHORUS [2]: 12.53 mg/dL
- POTASSIUM [2]: 6.51 MEQ/L
- SODIUM [2]: 140.03 MEQ/L
- TOTAL BILIRUBIN [2]: 0.1 mg/dL
- TOTAL PROTEIN [2]: 5.57 G/DL
- URIC ACID [2]: 2.1 mg/dL
- ABSOLUTE BASOPHIL [3]: 0 CELLS/uL
- ABSOLUTE EOSINOPHIL [3]: 0 CELLS/uL
- ABSOLUTE LYMPHOCYTE [3]: 1406 CELLS/uL
- ABSOLUTE MONOCYTE [3]: 62.67 CELLS/uL
- ABSOLUTE SEGMENTED NEUTROPHIL [3]: 98 CELLS/uL
- BASOPHIL [3]: 0%
- EOSINOPHIL [3]: 0%
- ERYTHROCYTE COUNT [3]: 5.5 x10E6/uL
- HEMATOCRIT [3]: 34.17%
- HEMOGLOBIN [3]: 13.53 G/DL
- LEUKOCYTE COUNT [3]: 1.57 x10E3/uL
- LYMPHOCYTE [3]: 90%
- MEAN CORPUSCULAR HEMOGLOBIN [3]: 24.63 pg
- MEAN CORPUSCULAR HEMOGLOBIN CONCENTRATION [3]: 39.63 G/DL
- MEAN CORPUSCULAR VOLUME [3]: 62.13 fL
- MONOCYTE [3]: 4%
- NEUTROPHIL [3]: 6%
- NUCLEATED RED BLOOD CELLS [3]: 0 /100WBC
- PLATELET COUNT [3]: 1169.33 x10E3/uL
- ALANINE AMINOTRANSFERASE [3]: 45 u/L
- ALBUMIN [3]: 3.97 G/DL
- ALKALINE PHOSPHATASE [3]: 263.67 u/L
- ASPARTATE AMINOTRANSFERASE [3]: 75.33 u/L
- BLOOD UREA NITROGEN [3]: 13 mg/dL
- CARBON DIOXIDE [3]: 24.33 mmol/L
- CHLORIDE [3]: 101 MEQ/L
- CHOLESTEROL [3]: 70.67 mg/dL
- CREATINE PHOSPHOKINASE [3]: 644 u/L
- CREATININE [3]: 0.13 mg/dL
- GLUCOSE [3]: 157 mg/dL
- LACTATE DEHYDROGENASE [3]: 154 u/L
- LIPASE [3]: 7.33 u/L
- PHOSPHORUS [3]: 9.53 mg/dL
- POTASSIUM [3]: 6.16 MEQ/L
- SODIUM [3]: 140.2 MEQ/L
- TOTAL BILIRUBIN [3]: 0.2 mg/dL
- TOTAL PROTEIN [3]: 5.73 G/DL
- URIC ACID [3]: 1.3 mg/dL
